Experimental data: patent EP1210336B1, “SUBSTITUTED BENZIMIDAZOLES AS NON-NUCLEOSIDE INHIBITORS OF REVERSE TRANSCRIPTASE” (THE UNITED STATES OF AMERICA, as represented by the …, priority 1999, dated 2001)
Read-outs that look alike come from different tables or passages of the source.

Assays:
[1] = system: NL4-3 (WT); test: Cytopathic cell killing assay, cross-resistance profile, infected MT-4 cells; format: cell-based, HIV-1
Description: (§1) The various HIV isolates tested in the Figures are those corresponding to wild-type virus (NL4-3) and the other strains listed by their RT mutations. The three 4xAZT isolates included in the Figures represent AZT drug-resistant variants. For example, the 4xAZT/L100I isolate has five mutations: four mutations confer increased resistance to AZT, and the other mutation is located within the NNRTI binding pocket. TZB and nevir. (nevirapine) are two well-known NNRTIs, included in this experiment for comparison purposes. […]
(§2) In this Example, the antiviral and cellular toxicity of NNRTIs was investigated, using the cytopathic cell killing assay described by Yang (Yang et al., "Characteristics of a Group of Non-nucleoside Reverse Transcriptase Inhibitors with Structural Diversity and Potent Anti-Human Immunodeficiency Virus Activity," Leukemia 9:S75-S85 [1995]). Briefly, in this method cells (e.g., the CEM-SS cell line, available from the NIAID AIDS Research and Reference Program [ARRRP]) were seeded at a density of 5 x 10^3 cells/well, into the wells of a 96-well microtiter plate. The cells were then infected with HIV virus (either mutant or WT), at a multiplicity of infection (MOI) previously determined to provide complete cell killing by 6 days of culture post-infection (e.g., MOI of 0.01-0.05). Each of the HIV isolates was pre-titered to induce equivalent levels of infection based on cell killing or virus production, prior to their use in these assays. A range of test compound concentrations was added to the wells in triplicate (e.g., serial half-log dilutions) to evaluate inhibition of HIV infection. Controls for each assay included drug controls (drug colorimetric control wells), drug cytotoxicity control wells (cells with drug), virus control wells (cells with virus), and cell viability controls (cells only). Positive control drugs (e.g., AZT and ddC) were also run in parallel.
(§3) After six days of incubation at 37°C, cell viability was determined spectrophotometrically at 450 nm for each well, using the metabolic reduction of XTT to a soluble colored formazan. (See, Gartner and Popovic, "Virus Isolation and Production, in Aldovini and Walker (eds.), Techniques in HIV Research, Stockton Press, NY, pp. […] [1991]; and Nara and Fischinger, "Quantitative Infectivity Assay for HIV-1 and HIV-2," Nature 332:469-470 [1988]).
(§4) The in vitro therapeutic index (TI50) was defined as the fold-difference between the EC50 and IC50. The results for the various compounds are included in Figures 8 and 19.

[2] = biological target: T1, HIV-1 WT RT (Human immunodeficiency virus type 1 group M subtype B, UniProt P03366); test: biochemical; details: for IC50: read-out: IC50
T1 construct: purified RT protein (0.015 mg/mL) was incubated in a 100 µL reaction mixture

[3] = system: WT virus (NL4-3); test: microbe, parasite or virus in culture; format: cell-based, HIV-1; details: Human immunodeficiency virus 1, NL43, CEM-SS, read-out: EC50
Method: Evaluation of these compounds for the inhibition of HIV-1 was determined as the fifty percent cell culture inhibitory concentration (CIC50) in CEMSS cell culture with WT virus (NL4-3).
as §2, §3, §4

[4] = system: HIV-1 variant V108I; test: Cytopathic cell killing assay, cross-resistance profile, infected MT-4 cells; format: cell-based
Description: as §1, §2, §3, §4

[5] = system: HIV-1 variant K101E; test: as above; format: cell-based
Description: as §1, §2, §3, §4

[6] = system: HIV-1 variant Y181C; test: as above; format: cell-based; details: isolate Y181C
Description: as §1, §2, §3, §4

[7] = system: HIV-1 variant K103N; test: as above; format: cell-based; details: isolate K103N
Description: as §1, §2, §3, §4

[8] = system: HIV-1 variant M184l; test: as above; format: cell-based; details: Human immunodeficiency virus 1, MT4
Description: as §1, §2, §3, §4

[9] = system: HIV-1 variant L100I; test: as above; format: cell-based; details: isolate L1001
Description: as §1, §2, §3, §4

[10] = system: HIV-1 variant Y188H; test: as above; format: cell-based; details: Human immunodeficiency virus 1, MT4
Description: as §1, §2, §3, §4

[11] = system: HIV-1 isolate 4xAZT/L100I; test: as above; format: cell-based
Method: The various HIV isolates tested in the Figures are those corresponding to wild-type virus (NL4-3) and the other strains listed by their RT mutations. The three 4xAZT isolates included in the Figures represent AZT drug-resistant variants. […]
as §2, with “Briefly,” for “In this Example, the antiviral and cellular toxicity of NNRTIs was investigated, using the cytopathic cell killing assay described by Yang (Yang et al., "Characteristics of a Group of Non-nucleoside Reverse Transcriptase Inhibitors with Structural Diversity and Potent Anti-Human Immunodeficiency Virus Activity," Leukemia 9:S75-S85 [1995]). Briefly,”
as §3
The in vitro therapeutic index (TI50) was defined as the fold-difference between the EC50 and IC50.

[12] = system: HIV-1 variant V106A; test: as above; format: cell-based; details: isolate V106A
Description: as §1, §2, §3, §4

[13] = system: HIV-1 variant L74V; test: as above; format: cell-based
Description: as §1, §2, §3, §4

[14] = system: HIV-1 variant A98G; test: as above; format: cell-based; details: isolate A98G
Description: as §1, §2, §3, §4

[15] = system: HIV-1 variant Y188C; test: as above; format: cell-based; details: isolate Y188C
Description: as §1, §2, §3, §4

[16] = system: HIV-1 isolate 4xAZT; test: as above; format: cell-based
Description: as §1, §2, §3, §4

[17] = system: HIV-1 isolate 4xAZT/Y181C; test: as above; format: cell-based
Description: as §1, §2, §3, §4

[18] = system: HIV-1 variant V179D; test: as above; format: cell-based; details: isolate V179D
Description: as §1, §2, §3, §4

[19] = Human immunodeficiency virus 1, MT4, Table 10 (values in µM)
[20] = Human immunodeficiency virus 1, MT4, Table 4
[21] = Human immunodeficiency virus 1, MT4, Table 9

For `O=[N+]([O-])c1cccc2c1nc(-c1c(F)cccc1F)n2Cc1c(F)cccc1F` [compound 48, 1-(2,6-difluorobenzyl)-2-(2,6-difluorophenyl)-4-nitrobenzimidazole], which EC50 ([1]; Human immunodeficiency virus 1, NL43, MT4, Table 10 (values in µM), isolate NL4-3 (WT)) is on record?
Its EC50 is 3.13 µM.

What about the IC50 ([2]; Table 7, HIV-1 WT RT) of the same molecule?
Its IC50 is 1880 nM.

What about the inhibition at 1 µM ([2]; Table 7, WT HIV-1 RT, 1 µM drug, read-out: %inhibn (1µM)) of the same molecule?
Its inhibition at 1 µM is 51%.

What about the EC50 ([3]; Table 7, concentration reducing cell killing or virus production by 50%, HIV-1 WT) of the same molecule?
The EC50 was 2400 nM.

And the EC50 ([4]; Human immunodeficiency virus 1, MT4, Table 10 (values in µM), isolate V108l)?
The EC50 was > 50 µM.

What about the EC50 ([5]; Human immunodeficiency virus 1, MT4, Table 10 (values in µM), isolate K101E) of the same molecule?
The EC50 was > 50 µM.

What about the EC50 [6, 19] of the same molecule?
Its EC50 is > 50 µM.

And the EC50 [7, 19]?
The EC50 was > 50 µM.

And the EC50 [8]?
The EC50 was 3690 nM.

And the EC50 [9, 19]?
The EC50 was 0.83 µM.

What about the EC50 [10] of the same molecule?
The EC50 was > 50000 nM.

With `Fc1cccc(F)c1Cn1c(-c2c(F)cccc2F)nc2ccccc21` [compound 26, 1-(2,6-difluorobenzyl)-2-(2,6-difluorophenyl)benzimidazole] as the molecule, how does the EC50 ([1]; Human immunodeficiency virus 1, NL43, MT4, Table 4, isolate NL4-3 (WT)) read?
The EC50 was 1.85 µM.

What about the EC50 ([1]; Human immunodeficiency virus 1, NL43, MT4, Table 9, isolate NL4.3) of the same molecule?
Its EC50 is 2.2 µM.

And the inhibition at 10 µM ([2]; Table 1, WT RT, 10 µM drug concentration, read-out: %inhibn (10µM))?
Its inhibition at 10 µM is 93%.

And the IC50 ([2]; Table 1, quantity of drug required to reduce WT RT enzyme activity by 50%)?
The IC50 was 110 nM.

What about the “%inhibn (10µM)” value ([2]; Table 2, WT RT, 10 µM drug concentration) of the same molecule?
Its value is 93%.

And the IC50 ([2]; Table 11, WT RT)?
The IC50 was 110 nM.

And the EC50 ([3]; Table 11, CEMSS/NL4-3, NRVC = reduction in viral CPE not seen (footnote))?
Its EC50 is 1700 nM.

And the EC50 ([11]; Human immunodeficiency virus 1, MT4, Table 4, isolate 4xAZT/L.1001)?
The EC50 was 840 nM.

What about the EC50 ([11]; Human immunodeficiency virus 1, MT4, Table 9, isolate 4XAZT /L1001) of the same molecule?
Its EC50 is 900 nM.

What about the EC50 ([4]; Human immunodeficiency virus 1, MT4, Table 4, isolate V108I) of the same molecule?
The EC50 was 10.4 µM.

What about the EC50 ([4]; Human immunodeficiency virus 1, MT4, Table 9, isolate V1081) of the same molecule?
The EC50 was > 10 µM.

And the EC50 [12, 20]?
The EC50 was > 20000 nM.

And the EC50 [12, 21]?
The EC50 was > 20000 nM.

What about the EC50 ([5]; Human immunodeficiency virus 1, MT4, Table 4, isolate K101E) of the same molecule?
Its EC50 is > 20 µM.

What about the EC50 ([5]; Human immunodeficiency virus 1, MT4, Table 9, isolate KIOIE) of the same molecule?
The EC50 was > 20 µM.

What about the EC50 [6, 20] of the same molecule?
The EC50 was 15.2 µM.

And the EC50 [6, 21]?
Its EC50 is 14 µM.

What about the EC50 [7, 20] of the same molecule?
The EC50 was 12.9 µM.

And the EC50 [7, 21]?
The EC50 was > 10 µM.

And the EC50 ([13]; Human immunodeficiency virus 1, MT4, Table 4, isolate L74V)?
The EC50 was 460 nM.

And the EC50 ([13]; Human immunodeficiency virus 1, MT4, Table 9, isolate 1.74 V)?
The EC50 was 1900 nM.

And the EC50 [14, 20]?
Its EC50 is 4750 nM.

And the EC50 [14, 21]?
Its EC50 is 4700 nM.

And the EC50 [9, 20]?
The EC50 was 1.36 µM.

What about the EC50 [9, 21] of the same molecule?
The EC50 was 1.3 µM.

And the EC50 [15, 20]?
Its EC50 is 11700 nM.

And the EC50 [15, 21]?
Its EC50 is > 10000 nM.

What about the EC50 ([16]; Human immunodeficiency virus 1, MT4, Table 4, isolate 4xAZT) of the same molecule?
Its EC50 is 270 nM.

And the EC50 ([16]; Human immunodeficiency virus 1, MT4, Table 9, isolate 4XAZT)?
The EC50 was 300 nM.

What about the EC50 ([17]; Human immunodeficiency virus 1, MT4, Table 4, isolate 4xAZT/Y181C) of the same molecule?
The EC50 was > 20000 nM.

And the EC50 ([17]; Human immunodeficiency virus 1, MT4, Table 9, isolate 4XAZT /Y181C)?
The EC50 was 20000 nM.

What about the EC50 [18, 20] of the same molecule?
Its EC50 is 2300 nM.

And the EC50 [18, 21]?
Its EC50 is 2900 nM.
